Experimental data: patent US12422427B2, “Compounds for treatment of diseases and methods of screening therefor” (Max-Planck-Gesellschaft zur Förderung der Wissenschaften …, priority 2018, dated 2025)
Entries after “also recorded” stand apart in the source; their conditions may differ.

Assays:
[1] = test system: HeLa cells expressing FUS GFP; test: HeLa cell compound dose responses (FUS GFP, arsenate stress); format: cell-based; conditions: 1 h 1 mM arsenate stress
Description: Small dilution steps rather than concentration replicates were selected as it provides greater statistical power from a set number of samples. Final DMSO concentration was 0.08% in all samples, and each plate included at least 12 control wells with 0.08% DMSO. Cytoplasmic FUS droplet number and nuclear/cytoplasm partition of FUS were analysed using custom macros in ImageJ. Nuclei were identified by intensity thresholding of the blue fluorescence image following a 5 px Gaussian blur. Cytoplasmic FUS droplets by intensity thresholding of the green image following a 10 px weight 0.9 unsharp filter masked by the thresholded nuclei, and nuclear FUS droplets by intensity thresholding of the green image following a 5 px weight 0.9 unsharp filter and 10 px rolling ball background subtraction masked to only include thresholded nuclei. The ratio of cytoplasmic FUS drops to nuclei was taken as cytoplasmic FUS droplets per cell per field of view, and p, the ratio of partition of FUS to the nucleus and the cytoplasm, was derived from a=Vn/vt, the ratio of nuclear to total green signal per field of view, where p=a/(1−a). […] Six fields of view were captured and analysed per condition.

[2] = test system: EWSR1, TIAL1, PABPC1, G3BP1; test: Panel of HeLa lines expressing GFP-labelled stress granule proteins, arsenate stress; format: cell-based; conditions: 1 mM arsenate, 10 μM compound
Description: It was anticipated that a useful therapeutic would prevent all PLD-containing stress granule proteins from localising to stress granules. The inventors used 1 mM arsenate to stress a panel of HeLa cell lines expressing GFP fusions of stress granule proteins (EWSR1, TIAL1, PABPC1, G3BP1) with either no treatment or 10 μM lipoic acid or lipoamide.
Compound effects were assessed under a variety of conditions in HeLa or iPS cells expressing wild-type or P525L FUS GFP by live cell imaging. Different combinations of 1 h pre-treatment compound or pre-stress with arsenate followed by 1 h treatment with compound and/or stress with arsenate. Unless otherwise indicated, cells were pre-treated for 1 h using 10 μM compound from 10 mM stock in DMSO (or an equal volume of DMSO control) then stressed for 1 h with 1 mM potassium arsenate still in the presence of compound. GFP fluorescence was imaged by widefield epifluorescence using an inverted Olympus IX71 microscope with an Olympus 100× NA 1.4 Plan Apo oil immersion objective and a CoolSNAP HQ CCD camera (Photometrics), using a DeltaVision climate control unit (37° C., 5% CO2) (Applied Precision). The kinetics of pre-stress followed by treatment was analysed from images captured at 2 min intervals for 100 min, for single time points images were captured after 1 h unless otherwise indicated.

[3] = test system: HeLa cells expressing FUS GFP; test: Stress granule formation in HeLa FUS GFP cells under different stresses; format: cell-based; conditions: 10 μM; mitochondrial (rotenone), hyperosmotic (sorbitol) or arsenate stress
Description: The stressor, arsenate, will react with the thiol groups of lipoamide. Therefore, to exclude the possibility that lipoamide is acting only by removing the stressor, so it was further tested whether lipoic acid can prevent stress granule formation triggered by other stresses than arsenate (an oxidative) stress: Mitochondrial electron transport chain inhibition (rotenone), heat stress (42° C.), hyperosmotic stress (sorbitol, a non-metabolisable sugar), glycolysis inhibition ([…] in the absence of glucose) or serum starvation.
Various cellular stresses were achieved by replacing 1 h 1 mM potassium arsenate treatment with other conditions: 100 μM rotenone (R8875, Sigma Aldrich) from a 1 M stock in DMSO for 2 h (mitochondrial stress). […] Sorbitol (S1876, Sigma Aldrich) from a 4 M stock in H2O for 1 h (osmotic stress). 42° C. in normal growth medium for 30 m (heat stress). […] Appropriate solvent controls were used.

PAB-1 = test: Protein aggregation in C. elegans: PAB-1; format: in vivo, Caenorhabditis elegans; conditions: liquid culture from L4, scored day 2 of adulthood
Description: The effect of lipoic acid on stress granule protein aggregation in vivo was analysed using a C. elegans model for stress granule formation and aggregation. As previously described, fluorescent-tagged PAB-1 forms abundant stress granules and large solid aggregates during aging or upon chronic stress. RHO-1 and KIN-19 also aggregate during aging, but are not RNA binding or stress granule proteins. Three lines were used: Fluorescently tagged PAB-1 (DCD214: N2; uqIs24[pmyo-2::tagrfp::pab 1gene]), KIN-19 (CF3649: N2; muIs 209[pmyo-3::kin-19::tagrfp+ptph-1::GFP] and RHO-1 (DCD13: N2; uqIs9 [pmyo-2::rho-1::tagr fp+ptph-1::gfp]). Each were analysed as below, except DCD13 were maintained at 20° C.
The animals were exposed to lipoic acid in liquid culture in a 96 well plate starting from larval stage L4 in a total volume of 50 μl S-Complete per well (100 mM NaCl, 50 mM Potassium phosphate pH 6, 10 mM potassium citrate, 3 mM MgSO4, 3 mM CaCl2), 5 μg/mL cholesterol, 50 μM ethylenediaminetetraacetic acid (EDTA), 25 μM FeSO4, 10 μM MnCl2, 10 μM ZnSO4, 1 μM CuSO4) supplemented with heat-killed OP50 and 50 μg/ml carbenicillin. […] Toxicity was evaluated from the number of dead or aberrantly small-sized animals.
48 h after switching the L4s from 20° C. to 25° C. […] After immobilization with 2 mM levamisole aggregation was scored using a fluorescent stereo microscope (Leica M165 FC, Plan Apo 2.0× objective). […]

[4] = test system: liquid-like non-membrane bound compartments; conditions: cited from earlier work

Compound | EC50 reducing stress granule number, compared among compounds [1] | localisation of EWSR1, TIAL1, PABPC1, G3BP1 GFP to stress granules [2] | stress granule formation [3] | proportion of animals with aggregation of PAB-1 (PAB-1) | concentrations required for in vitro or cellular activity [4] | toxicity at active concentrations [4]
S-(−)-lipoic acid | comparable EC50; also recorded: very similar activity | localised to stress granules in the absence of treatment, and not in the presence | reduced stress granule formation | dose-dependent decrease; also recorded: strong dose-dependent reduction |  | 
OCCCCCCO [1,6-hexanediol] |  |  |  |  | 1-10% | rapidly toxic
O=C(O)CCCC[C@@H]1CCSS1 [R-(+)-lipoic acid] | comparable EC50 | localised to stress granules in the absence of treatment, and not in the presence | reduced stress granule formation | dose-dependent decrease; also recorded: strong dose-dependent reduction |  | 
